In patent publication US9101577B2, “Analgesic pharmaceutical composition for oral administration” (Warszawski Uniwersytet Medyczny, priority 2011, dated 2015):

How the values were obtained:
Male Wistar rats [1] = assay: Acute activity after single p.o. administration, paw withdrawal test (Randall and Selitto), % of analgesia; assay type: in vivo, rat; details: for analgesic activity / pain threshold when administered alone (morphine study): morphine 15 mg/kg
Experimental: (§1) Male Wistar rats (250-300 g) were housed in a room maintained at a temperature of 20±2° C. under 12 h-12 h light-dark cycles. The animals had free access to food and water. Experimental groups consisted of six rats.
(§2) Drugs • Morphine at a dose of 15 mg/kg, codeine at a dose of 175 mg/kg, tramadol at a dose of 125 mg/kg and oxycodone at a dose of 5 mg/kg were dissolved in distilled water; • Dihydrocodeine at a dose of 50 mg/kg was suspended in 1% solution of methylcellulose; • Magnesium lactate (in micronized form)—at a dose of 15 mg magnesium ions/kg (150 mg of magnesium lactate/kg) was suspended in 0.5% solution of methylcellulose; • Magnesium lactate in normal (non-micronized) form—at doses of 15 or 30 mg magnesium ions/kg (150 or 300 mg of magnesium lactate/kg, respectively) was suspended in 0.5% solution of methylcellulose; • Magnesium citrate (in micronized and normal form)—at a dose of 15 mg magnesium ions/kg (112 mg of magnesium citrate/kg) was dissolved in distilled water; • Magnesium hydroaspartate (in micronized and normal form)—at a dose of 15 mg magnesium ions/kg (216 mg of magnesium hydroaspartate/kg) was suspended in 0.5% solution of methylcellulose; • Magnesium chloride (in micronized and normal form)—at a dose of 15 mg magnesium ions/kg (59.5 mg of magnesium chloride/kg) was dissolved in distilled water; • Control animals received a 0.5% solution of methylcellulose, a 1% solution of methylcellulose and distilled water, respectively, according to the same time schedule.
Magnesium salts and investigated opioids were administered concomitantly.
The micronized form of magnesium salts used in experiments contains particles of magnesium compounds of size D90<50 μm.
The normal magnesium salts form used in experiments contains particles of sizes commonly available in the market.
Acute activity of investigated drugs was measured in short time periods (from 5 to 300 min) after single administration.
(§3) All drugs were administered per os (p.o.); literally—orally. However, in practice, drugs were administered intragastric via a gastric tube.
(§4) Changes in pain thresholds were determined using a mechanical stimuli—the modification of the classic paw withdrawal test described by Randall and Selitto [1957]. In order to produce mechanical stimulation, progressively increasing pressure was applied to the dorsal surface of the rat's paw using an analgesymeter. The instrument used increased the force on the paw at a rate of 32 grams per second. The nociceptive threshold was defined as force in grams, at which the rat attempted to withdraw its right hindpaw and values of pressure were recorded at this very moment. At least two observers controlled the response.
(§5) Nociceptive thresholds (average of two trials) measured for each animal before single administration of investigated drugs (measurement of acute activity) or in day 0 before the first administration (measurement of prolonged activity) constituted the baseline pain threshold—A. Next, measurements of the withdrawal threshold to mechanical stimuli were performed at 5, 15, 30, 60, 90, 120, 180, 240, 300 min after drug administration (measurements of acute activity) or every day before drug administration (measurements of prolonged activity)—B.
(§6) In all experimental sessions (i.e. every day, each drug investigated) values of thresholds obtained (B) were compared to baseline (A).
(§7) Changes in pain threshold were calculated as a percent of baseline value according to the following formula:
(§8) [formula] • C—% of analgesia; A—pressure (in g), baseline pain threshold; B—pressure (in g) in consecutive measurements.
(§9) Percents of analgesia values calculated as above for individual animals were subsequently used to calculate average values in particular experimental groups and for statistical analysis.
The results are expressed as mean values±standard deviation of the mean (±S.E.M.).

Male Wistar rats [2] = assay: Prolonged activity on repeated daily p.o. administration (7 or 10 days), paw withdrawal test (Randall and Selitto); assay type: in vivo, rat; details: for pain threshold on separate administration, 7 days (morphine study): morphine 15 mg/kg
Experimental: as §1, §2
Prolonged activity of the investigated drugs was measured the following day after initial administration, but before the next administration as well as after cessation of administration. Drugs were administered for seven consecutive days (administration of morphine, codeine, dihydrocodeine, oxycodone) or for ten days (administration of tramadol).
as §3, §4, §5, §6, §7, §8, §9
The results are expressed as mean values±standard […] of the mean (±S.E.M.). The statistical significance of differences between groups was evaluated by Student's t-test. p≦0.05 was accepted as statistically significant.

[3] = single administration, 15 mg magnesium ions/kg p.o. with dihydrocodeine 50 mg/kg p.o.
[4] = single administration, 15 mg magnesium ions/kg p.o. with morphine 15 mg/kg p.o.
[5] = single administration, 15 mg magnesium ions/kg p.o. with oxycodone 5 mg/kg p.o.
[6] = single administration, 15 mg magnesium ions/kg p.o. with tramadol 125 mg/kg p.o.
[7] = single separate administration p.o., magnesium salts 15 mg magnesium ions/kg
[8] = 15 mg magnesium ions/kg p.o. with codeine 175 mg/kg p.o., 7 days
[9] = 15 mg magnesium ions/kg p.o. with dihydrocodeine 50 mg/kg p.o., 7 days
[10] = 15 mg magnesium ions/kg p.o. with morphine 15 mg/kg p.o., 7 days
[11] = 15 mg magnesium ions/kg p.o. with tramadol 125 mg/kg p.o., 10 consecutive days
[12] = separate administration p.o., magnesium lactate micronized 15 or normal 30 mg magnesium ions/kg
[13] = 15 mg magnesium ions/kg p.o. with oxycodone 5 mg/kg p.o., 7 consecutive days

SMILES: CC(O)C(=O)[O-].CC(O)C(=O)[O-].[Mg+2] (stereo not drawn) [micronized magnesium lactate, Magnesium lactate]
- effect on analgesic activity of codeine (Male Wistar rats [1]; single administration, 15 mg magnesium ions/kg p.o. with codeine 175 mg/kg p.o.): significantly enhanced the analgesic activity of codeine
- effect on dihydrocodeine analgesia (Male Wistar rats [1]; [3]): significantly enhanced dihydrocodeine analgesia
- time course of activity on dihydrocodeine analgesia (Male Wistar rats [1]; [3]): gradually increased and reached a maximum between min 45 and 90 of the measurements and then became weaker by min 210
- effect on morphine analgesia (Male Wistar rats [1]; [4]): significantly enhanced morphine analgesia
- enhancement of morphine analgesia lasted up to (Male Wistar rats [1]; [4]): 240 min
- time at which enhancement of morphine analgesia appeared (Male Wistar rats [1]; [4]): 30 min
- effect on oxycodone analgesia (Male Wistar rats [1]; [5]): significantly enhanced oxycodone analgesia
- time at which activity on oxycodone analgesia appeared (Male Wistar rats [1]; [5]): 5 min
- time course of activity on oxycodone analgesia (Male Wistar rats [1]; [5]): maintained at a constant level up to min 30 of the study, then became weaker in min 45 and disappeared in min 60
- effect on antinociceptive activity of tramadol (Male Wistar rats [1]; [6]): increased antynociceptive activity of tramadol
- analgesic activity on separate administration (codeine study) (Male Wistar rats [1]; single separate administration p.o., codeine 175 mg/kg, magnesium salts 15 mg magnesium ions/kg): did not exhibit analgesic activity
- analgesic activity / pain perception threshold on separate administration (dihydrocodeine study) (Male Wistar rats [1]; single separate administration p.o., dihydrocodeine 50 mg/kg, magnesium salts 15 mg magnesium ions/kg): did not exhibit analgesic activity
- analgesic activity / pain threshold when administered alone (morphine study) (Male Wistar rats [1]; [7]): Neither morphine nor magnesium lactate and chloride in micronized or normal form administered alone showed analgesic activity
- analgesic activity on separate administration (oxycodone study) (Male Wistar rats [1]; single separate administration p.o., oxycodone 5 mg/kg, magnesium salts 15 mg magnesium ions/kg): showed no analgesic activity
- analgesic activity on separate administration (tramadol study) (Male Wistar rats [1]; single separate administration p.o., tramadol 125 mg/kg, magnesium salts 15 mg magnesium ions/kg): did not exhibit analgesic activity
- course of enhancement of codeine analgesia (Male Wistar rats [2]; [8]): reached a maximum on days 6 and 7
- day on which enhancement of codeine analgesia began (Male Wistar rats [2]; [8]): fourth
- effect on analgesic activity of chronically administered codeine (Male Wistar rats [2]; [8]): also enhanced analgesic activity of chronically administered codeine
- activity after cessation of drug administration (codeine study) (Male Wistar rats [2]; 15 mg magnesium ions/kg p.o. with codeine 175 mg/kg p.o., days 8-10): rapidly decreased
- course of enhancement of dihydrocodeine analgesia (Male Wistar rats [2]; [9]): reached a maximum on days 6 and 7
- day on which enhancement of dihydrocodeine analgesia began (Male Wistar rats [2]; [9]): fourth
- effect on analgesic activity of chronically administered dihydrocodeine (Male Wistar rats [2]; [9]): gradually enhanced the analgesic activity of chronically administered dihydrocodeine
- pain threshold after cessation of drug administration (dihydrocodeine study) (Male Wistar rats [2]; 15 mg magnesium ions/kg p.o. with dihydrocodeine 50 mg/kg p.o., days 8-10): the pain threshold rapidly reduced to control values
- course of enhancement of morphine analgesia (Male Wistar rats [2]; [10]): grew gradually to 7 day
- day on which enhancement of morphine analgesia began (Male Wistar rats [2]; [10]): 3 days
- effect on analgesic activity of morphine, 7-day administration (Male Wistar rats [2]; [10]): also enhanced the analgesic activity of morphine
- pain threshold after cessation of drug administration (morphine study) (Male Wistar rats [2]; 15 mg magnesium ions/kg p.o. with morphine 15 mg/kg p.o., days 8-10): gradual return to baseline values
- course of enhancement of tramadol analgesia (Male Wistar rats [2]; [11]): gradually increased (to day 7), and then was maintained to day 10
- day on which enhancement of tramadol analgesia began (Male Wistar rats [2]; [11]): third
- effect on long-term analgesic activity of tramadol (Male Wistar rats [2]; [11]): enhanced the long-term analgesic activity of the examined opioid
- pain threshold after removal of the tested substances (tramadol study) (Male Wistar rats [2]; 15 mg magnesium ions/kg p.o. with tramadol 125 mg/kg p.o., days 11-12): the pain threshold returned to control values by day 11
- analgesic activity on separate administration, 7 days (codeine study) (Male Wistar rats [2]; separate administration p.o., codeine 175 mg/kg, magnesium lactate micronized 15 or normal 30 mg magnesium ions/kg): did not exhibit analgesic activity
- pain threshold on separate administration, 7 days (dihydrocodeine study) (Male Wistar rats [2]; separate administration p.o., dihydrocodeine 50 mg/kg, magnesium lactate micronized 15 or normal 30 mg magnesium ions/kg): did not alter the pain threshold
- pain threshold on separate administration, 7 days (morphine study) (Male Wistar rats [2]; [12]): did not alter the pain threshold
- analgesic activity on separate administration, 7 days (oxycodone study) (Male Wistar rats [2]; separate administration p.o., oxycodone 5 mg/kg, magnesium lactate micronized 15 or normal 30 mg magnesium ions/kg): did not exhibit analgesic activity
- pain threshold on separate administration, 10 days (tramadol study) (Male Wistar rats [2]; separate administration p.o., tramadol 125 mg/kg, magnesium lactate micronized 15 or normal 30 mg magnesium ions/kg): did not alter the pain threshold

SMILES: CC(O)C(=O)[O-].CC(O)C(=O)[O-].[Mg+2] (stereo not drawn) [magnesium lactate, Magnesium lactate]
- enhancement of tramadol analgesia lasted until (Male Wistar rats [1]; [6]): 45 min
- time at which enhancement of tramadol analgesia appeared (Male Wistar rats [1]; [6]): 5 min
- time of maximum activity on tramadol analgesia (Male Wistar rats [1]; [6]): 15 min
- pain threshold one day after removal of the tested substances (oxycodone study) (Male Wistar rats [2]; 15 mg magnesium ions/kg p.o. with oxycodone 5 mg/kg p.o.): rapid return of the pain threshold to control values
- course of enhancement of oxycodone analgesia (Male Wistar rats [2]; [13]): reached its maximum on days 6 and 7
- day on which enhancement of oxycodone analgesia began (Male Wistar rats [2]; [13]): third
- effect on long-term analgesic activity of oxycodone (Male Wistar rats [2]; [13]): enhanced the long-term analgesic activity of the examined opioid

SMILES: CN1CC[C@]23c4c5ccc(O)c4O[C@H]2[C@@H](O)C=C[C@H]3[C@H]1C5 [morphine, reference compound]
- analgesic activity / pain threshold when administered alone (morphine study) (Male Wistar rats [1]; [7]): Neither morphine nor magnesium lactate and chloride in micronized or normal form administered alone showed analgesic activity
- pain threshold on separate administration, 7 days (morphine study) (Male Wistar rats [2]; [12]): slightly increased the threshold for mechanical nociceptive stimuli
